biological target: hNav1.7 (Homo sapiens (Human), UniProt Q15858); settings: voltage-gated sodium channel blocking activity against hNav1.7
Sequence (Q15858 whole entry): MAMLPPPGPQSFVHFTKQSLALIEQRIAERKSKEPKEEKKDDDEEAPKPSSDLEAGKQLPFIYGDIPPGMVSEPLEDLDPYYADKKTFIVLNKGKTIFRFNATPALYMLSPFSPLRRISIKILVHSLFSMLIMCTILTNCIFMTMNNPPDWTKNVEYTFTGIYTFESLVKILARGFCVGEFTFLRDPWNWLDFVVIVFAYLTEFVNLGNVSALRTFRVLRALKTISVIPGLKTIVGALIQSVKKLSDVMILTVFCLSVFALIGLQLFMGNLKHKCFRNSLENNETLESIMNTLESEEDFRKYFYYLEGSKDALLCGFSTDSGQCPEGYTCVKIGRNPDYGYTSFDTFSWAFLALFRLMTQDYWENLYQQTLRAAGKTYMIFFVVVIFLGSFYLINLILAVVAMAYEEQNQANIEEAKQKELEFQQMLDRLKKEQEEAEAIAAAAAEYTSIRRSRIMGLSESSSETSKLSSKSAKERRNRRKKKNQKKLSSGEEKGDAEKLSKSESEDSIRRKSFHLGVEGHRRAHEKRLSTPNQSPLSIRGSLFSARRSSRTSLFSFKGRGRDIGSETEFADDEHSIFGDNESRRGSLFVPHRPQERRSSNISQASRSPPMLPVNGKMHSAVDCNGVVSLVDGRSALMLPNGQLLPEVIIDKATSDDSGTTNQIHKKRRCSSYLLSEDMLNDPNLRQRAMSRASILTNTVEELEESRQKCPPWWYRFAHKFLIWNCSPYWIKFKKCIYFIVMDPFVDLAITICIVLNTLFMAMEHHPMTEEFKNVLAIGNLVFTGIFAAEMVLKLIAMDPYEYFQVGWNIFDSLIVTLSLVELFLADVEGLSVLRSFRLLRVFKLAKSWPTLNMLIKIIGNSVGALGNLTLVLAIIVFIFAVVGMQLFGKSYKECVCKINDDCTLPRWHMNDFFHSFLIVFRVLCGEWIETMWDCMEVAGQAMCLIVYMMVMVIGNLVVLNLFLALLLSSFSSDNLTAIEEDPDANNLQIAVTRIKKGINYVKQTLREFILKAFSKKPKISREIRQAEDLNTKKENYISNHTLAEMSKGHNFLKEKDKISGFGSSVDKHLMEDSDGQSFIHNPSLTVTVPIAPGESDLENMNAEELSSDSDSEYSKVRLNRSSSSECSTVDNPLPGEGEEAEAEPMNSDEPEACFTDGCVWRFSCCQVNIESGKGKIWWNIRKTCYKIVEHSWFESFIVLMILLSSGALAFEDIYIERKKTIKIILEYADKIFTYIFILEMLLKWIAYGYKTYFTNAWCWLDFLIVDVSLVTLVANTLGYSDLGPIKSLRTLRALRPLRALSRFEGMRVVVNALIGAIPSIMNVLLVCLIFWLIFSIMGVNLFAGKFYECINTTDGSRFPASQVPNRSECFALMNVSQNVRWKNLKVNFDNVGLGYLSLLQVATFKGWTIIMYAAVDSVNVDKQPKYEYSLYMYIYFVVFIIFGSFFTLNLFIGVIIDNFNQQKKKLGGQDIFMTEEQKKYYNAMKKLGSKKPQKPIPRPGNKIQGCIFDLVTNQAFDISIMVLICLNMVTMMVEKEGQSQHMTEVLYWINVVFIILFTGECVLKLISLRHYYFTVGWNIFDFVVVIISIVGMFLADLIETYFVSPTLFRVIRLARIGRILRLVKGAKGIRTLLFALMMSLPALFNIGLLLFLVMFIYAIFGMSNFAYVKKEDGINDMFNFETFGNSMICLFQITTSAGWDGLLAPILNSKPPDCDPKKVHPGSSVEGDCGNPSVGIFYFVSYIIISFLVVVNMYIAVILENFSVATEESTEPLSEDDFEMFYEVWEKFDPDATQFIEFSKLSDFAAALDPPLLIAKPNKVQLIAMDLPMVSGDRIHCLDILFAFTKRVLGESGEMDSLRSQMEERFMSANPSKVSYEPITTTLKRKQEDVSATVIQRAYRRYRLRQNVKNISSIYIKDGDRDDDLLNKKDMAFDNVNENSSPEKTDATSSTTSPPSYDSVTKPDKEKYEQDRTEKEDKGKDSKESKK

| Compound | IC50 [nM] |
| --- | --- |
| O=C1N(Cc2ncccc2C(F)(F)F)c2ccccc2[C@]12COc1cc3c(cc12)OCCO3 [(II-S), (S)-1′-{[3-(trifluoromethyl)pyridin-2-yl]methyl}-2,3-dihydrospiro[furo[2,3-g][1,4]benzodioxine-8,3′-indol]-2′(1′H)-one] | 5 |
| O=C1N(Cc2ncccc2C(F)(F)F)c2ccccc2C12COc1cc3c(cc12)OCCO3 (centres unmarked) [(II), 1′-{[3-(trifluoromethyl)pyridin-2-yl]methyl}-2,3-dihydrospiro[furo[2,3-g][1,4]benzodioxine-8,3′-indol]-2′(1′H)-one] | 15 |
| O=C1N(Cc2ccc(C(F)(F)F)o2)c2ccccc2[C@@]12COc1cc3c(cc12)OCO3 [(I-R), (R)-1′-{[5-(trifluoromethyl)furan-2-yl]methyl}spiro[furo[2,3-f][1,3]-benzodioxole-7,3′-indol]-2′(1′H)-one] | 4200 |
| O=C1N(Cc2ccc(C(F)(F)F)o2)c2ccccc2C12COc1cc3c(cc12)OCO3 (centres unmarked) [(I), 1′-{[5-(trifluoromethyl)-2-furyl]methyl}spiro[furo[2,3-f][1,3]benzodioxole-7,3′-indol]-2′(1′H)-one] | 7 |
| O=C1N(Cc2ccc(C(F)(F)F)o2)c2ccccc2[C@]12COc1cc3c(cc12)OCO3 [(I-S), (S)-1′-{[5-(trifluoromethyl)furan-2-yl]methyl}spiro-[furo[2,3-f][1,3]benzodioxole-7,3′-indol]-2′(1′H)-one] | 3 |

From US9260446B2, “Synthetic methods for spiro-oxindole compounds” (Xenon Pharmaceuticals Inc., priority 2009, dated 2016)
